Earlier results in patent US10463673B2, “Nanoparticulate meloxicam formulations” (Recro Pharma, Inc., priority 2003, dated 2019).
Like-named read-outs stand apart in the source and are kept apart here.

How the values were obtained:
[1] = oral; for Cmax, mean (% CV) / tmax, mean (% CV): 15 mg capsules
[2] = system: COX-2
[3] = Single dose, hepatic insufficiency (Fasted)
[4] = Single dose, renal failure (Fasted)
[5] = Steady state, elderly females (Fed)
[6] = Steady state, elderly males (Fed)

Cc1cnc(NC(=O)C2=C(O)c3ccccc3S(=O)(=O)N2C)s1 [Meloxicam, 4-hydroxy-2-methyl-N-(5-methyl-2-thiazolyl)-2-H-1,2-benzothiazine-3-carboxamide 1,1-dioxide]
Cmax, mean (% CV) [1, 3]: 0.84 (29) μg/mL
tmax, mean (% CV) [1, 3]: 10 (87) h
Cmax, mean (% CV) [1, 4]: 0.59 (36) μg/mL
tmax, mean (% CV) [1, 4]: 4 (65) h
Cmax, mean (% CV) [1, 5]: 3.2 (24) μg/mL
tmax, mean (% CV) [1, 5]: 6 (27) h
Cmax, mean (% CV) [1, 6]: 2.3 (59) μg/mL
tmax, mean (% CV) [1, 6]: 5 (12) h
time of second meloxicam concentration peak post-dose ([1]; fasted steady state conditions): twelve to fourteen
solubility in methanol (methanol): very slightly soluble
solubility in strong acids and bases (strong acids and bases, compared with water): higher solubility
solubility in water (water): practically insoluble
COX-2/COX-1 inhibition ratio [2]: 0.09
